Values of other authors, collected in US8791105B2, “Methods for alleviating chronic pain and improving performance of cattle undergoing dehorning or castration” (Kansas State University Research Foundation, priority 2010, dated 2014).

Experiments:
[1] = plasma; humans; cited from earlier work
[2] = in vivo; cited from earlier work

Compound | reported minimum effective concentration [1] [µg/mL] | plasma half-life previously reported [2] [min]
1-(aminomethyl) cyclohexane acetic acid [gabapentin] | 2 | 
O=C(O)c1ccccc1O [salicylate] |  | 30
